Test results: PubChem BioAssay AID1963967 (Molecular Pharmacology Branch, DTP, NCI, 2024)
pIC50: −log10 of the molar value.

System: 855422-203-R-J1-PDC spheroids with HUVEC/MSC, viability
Test: Anticancer human tumor 855422-203-R-J1-PDC patient-derived bladder carcinoma cell line growth inhibition [PI3K]
Settings: for pIC50: curve of first compound; for viability, T/C: stronger effect = lower value
In short: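 Tumor cells grown as multi-cell spheroids with HUVEC endothelial cells and MSC fibroblast-like stroma were treated with targeted agents combined with inavolisib, alpelisib, duvelisib or copanlisib. Doses fell in half-log steps from near clinical Cmax, else from 10 microM. Viability was measured.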

[1] = second compound 0.0316 µM, first compound 0.000316 µM
[2] = second compound 0.0316 µM, first compound 0.001 µM
[3] = second compound 0.0316 µM, first compound 0.00316 µM
[4] = second compound 0.0316 µM, first compound 0.01 µM
[5] = second compound 0.0316 µM, first compound 0.0316 µM
[6] = second compound 0.0316 µM, first compound 0.1 µM
[7] = second compound 0.1 µM, first compound 0.000316 µM
[8] = second compound 0.1 µM, first compound 0.001 µM
[9] = second compound 0.1 µM, first compound 0.00316 µM
[10] = second compound 0.1 µM, first compound 0.01 µM
[11] = second compound 0.1 µM, first compound 0.0316 µM
[12] = second compound 0.1 µM, first compound 0.1 µM
[13] = second compound 0.316 µM, first compound 0.000316 µM
[14] = second compound 0.316 µM, first compound 0.001 µM
[15] = second compound 0.316 µM, first compound 0.00316 µM
[16] = second compound 0.316 µM, first compound 0.01 µM
[17] = second compound 0.316 µM, first compound 0.0316 µM
[18] = second compound 0.316 µM, first compound 0.1 µM
[19] = second compound 1 µM, first compound 0.000316 µM
[20] = second compound 1 µM, first compound 0.001 µM
[21] = second compound 1 µM, first compound 0.00316 µM
[22] = second compound 1 µM, first compound 0.01 µM
[23] = second compound 1 µM, first compound 0.0316 µM
[24] = second compound 1 µM, first compound 0.1 µM
[25] = second compound 3.16 µM, first compound 0.000316 µM
[26] = second compound 3.16 µM, first compound 0.001 µM
[27] = second compound 3.16 µM, first compound 0.00316 µM
[28] = second compound 3.16 µM, first compound 0.01 µM
[29] = second compound 3.16 µM, first compound 0.0316 µM
[30] = second compound 3.16 µM, first compound 0.1 µM
[31] = second compound 10 µM, first compound 0.000316 µM
[32] = second compound 10 µM, first compound 0.001 µM
[33] = second compound 10 µM, first compound 0.00316 µM
[34] = second compound 10 µM, first compound 0.01 µM
[35] = second compound 10 µM, first compound 0.0316 µM
[36] = second compound 10 µM, first compound 0.1 µM
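Also: agents incubated with spheroids for one week before read-out.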
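For viability, T/C in this document: 100% = DMSO vehicle-treated control wells.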

With `CC(=O)c1c(C)c2cnc(Nc3ccc(N4CCNCC4)cn3)nc2n(C2CCCC2)c1=O` + Cc1nc(NC(=O)N2CCCC2C(N)=O)sc1-c1ccnc(C(C)(C)C(F)(F)F)c1 the pIC50 (second compound 0.0316 µM) was < 7.00, the pIC50 (second compound 0.1 µM) was < 7.00 and the pIC50 (second compound 0.316 µM) was < 7.00. For the same molecule, the pIC50 (second compound 1 µM) was 7.29, the pIC50 (second compound 3.16 µM) was > 9.50 and the pIC50 (second compound 10 µM) was > 9.50. It also gave a viability, T/C [1] of 103%, a viability, T/C [2] of 94.1% and a viability, T/C [3] of 111%. For the same molecule, the viability, T/C [4] was 112%, the viability, T/C [5] was 102% and the viability, T/C [6] was 85.3%. For the same molecule, the viability, T/C [7] was 106%, the viability, T/C [8] was 97.8% and the viability, T/C [9] was 109%. It also gave a viability, T/C [10] of 98.3%, a viability, T/C [11] of 96.3% and a viability, T/C [12] of 76.7%. For the same molecule, the viability, T/C [13] was 91.7%, the viability, T/C [14] was 92.5% and the viability, T/C [15] was 97.3%. It also gave a viability, T/C [16] of 90.7%, a viability, T/C [17] of 90.9% and a viability, T/C [18] of 58%. It also gave a viability, T/C [19] of 69.4%, a viability, T/C [20] of 78.2% and a viability, T/C [21] of 72.8%. It also gave a viability, T/C [22] of 75.5%, a viability, T/C [23] of 60.5% and a viability, T/C [24] of 33%. The viability, T/C [25] was 44.1%, the viability, T/C [26] was 46.9% and the viability, T/C [27] was 42.7%. It also gave a viability, T/C [28] of 41.3%, a viability, T/C [29] of 34.5% and a viability, T/C [30] of 18.2%. It also gave a viability, T/C [31] of 25.3%, a viability, T/C [32] of 24% and a viability, T/C [33] of 24.1%. The viability, T/C [34] was 23%, the viability, T/C [35] was 19.3% and the viability, T/C [36] was 10.7%.

`CC(C)n1nc(-c2ccc3oc(N)nc3c2)c2c(N)ncnc21` + Cc1nc(NC(=O)N2CCCC2C(N)=O)sc1-c1ccnc(C(C)(C)C(F)(F)F)c1 was tested, and the pIC50 (second compound 0.0316 µM) was 7.31, the pIC50 (second compound 0.1 µM) was 7.37 and the pIC50 (second compound 0.316 µM) was 7.48. For the same molecule, the pIC50 (second compound 1 µM) was 7.95, the pIC50 (second compound 3.16 µM) was > 9.50 and the pIC50 (second compound 10 µM) was > 9.50. It also gave a viability, T/C [1] of 85.8%, a viability, T/C [2] of 86.9% and a viability, T/C [3] of 106%. It also gave a viability, T/C [4] of 87.6%, a viability, T/C [5] of 70.7% and a viability, T/C [6] of 17.8%. The viability, T/C [7] was 105%, the viability, T/C [8] was 88.5% and the viability, T/C [9] was 97.2%. It also gave a viability, T/C [10] of 82.8%, a viability, T/C [11] of 63.6% and a viability, T/C [12] of 14.7%. For the same molecule, the viability, T/C [13] was 68.4%, the viability, T/C [14] was 87.6% and the viability, T/C [15] was 87.4%. The viability, T/C [16] was 75.1%, the viability, T/C [17] was 51.8% and the viability, T/C [18] was 12.3%. For the same molecule, the viability, T/C [19] was 67.5%, the viability, T/C [20] was 66.9% and the viability, T/C [21] was 55.9%. For the same molecule, the viability, T/C [22] was 51.4%, the viability, T/C [23] was 37.8% and the viability, T/C [24] was 8.4%. For the same molecule, the viability, T/C [25] was 42.5%, the viability, T/C [26] was 44.7% and the viability, T/C [27] was 35.8%. The viability, T/C [28] was 34.1%, the viability, T/C [29] was 20.5% and the viability, T/C [30] was 5.68%. The viability, T/C [31] was 22.9%, the viability, T/C [32] was 19.3% and the viability, T/C [33] was 20.3%. For the same molecule, the viability, T/C [34] was 16.2%, the viability, T/C [35] was 11.9% and the viability, T/C [36] was 3.12%.

`CCCS(=O)(=O)Nc1ccc(F)c(C(=O)c2c[nH]c3ncc(-c4ccc(Cl)cc4)cc23)c1F` + Cc1nc(NC(=O)N2CCCC2C(N)=O)sc1-c1ccnc(C(C)(C)C(F)(F)F)c1 gave a pIC50 (second compound 0.0316 µM) of 5.41, a pIC50 (second compound 0.1 µM) of 5.41 and a pIC50 (second compound 0.316 µM) of 5.35. The pIC50 (second compound 1 µM) was 5.45, the pIC50 (second compound 3.16 µM) was > 7.50 and the pIC50 (second compound 10 µM) was > 7.50. For the same molecule, the viability, T/C [5] was 97.7%, the viability, T/C [6] was 89.5% and the viability, T/C (second compound 0.0316 µM, first compound 0.316 µM) was 109%. It also gave a viability, T/C (second compound 0.0316 µM, first compound 1 µM) of 82.5%, a viability, T/C (second compound 0.0316 µM, first compound 3.16 µM) of 62.3% and a viability, T/C (second compound 0.0316 µM, first compound 10 µM) of 0.1%. It also gave a viability, T/C [11] of 88.2%, a viability, T/C [12] of 90.2% and a viability, T/C (second compound 0.1 µM, first compound 0.316 µM) of 100%. It also gave a viability, T/C (second compound 0.1 µM, first compound 1 µM) of 90.7%, a viability, T/C (second compound 0.1 µM, first compound 3.16 µM) of 61.1% and a viability, T/C (second compound 0.1 µM, first compound 10 µM) of 0.16%. It also gave a viability, T/C [17] of 86.4%, a viability, T/C [18] of 87.4% and a viability, T/C (second compound 0.316 µM, first compound 0.316 µM) of 99.1%. For the same molecule, the viability, T/C (second compound 0.316 µM, first compound 1 µM) was 85.3%, the viability, T/C (second compound 0.316 µM, first compound 3.16 µM) was 70.8% and the viability, T/C (second compound 0.316 µM, first compound 10 µM) was 0.13%. It also gave a viability, T/C [23] of 71.4%, a viability, T/C [24] of 74% and a viability, T/C (second compound 1 µM, first compound 0.316 µM) of 68.9%. The viability, T/C (second compound 1 µM, first compound 1 µM) was 72.8%, the viability, T/C (second compound 1 µM, first compound 3.16 µM) was 53.6% and the viability, T/C (second compound 1 µM, first compound 10 µM) was 0.11%. The viability, T/C [29] was 45.3%, the viability, T/C [30] was 46.2% and the viability, T/C (second compound 3.16 µM, first compound 0.316 µM) was 38.4%. It also gave a viability, T/C (second compound 3.16 µM, first compound 1 µM) of 44%, a viability, T/C (second compound 3.16 µM, first compound 3.16 µM) of 25.9% and a viability, T/C (second compound 3.16 µM, first compound 10 µM) of 0.29%. It also gave a viability, T/C [35] of 25.3%, a viability, T/C [36] of 17.9% and a viability, T/C (second compound 10 µM, first compound 0.316 µM) of 23.2%. The viability, T/C (second compound 10 µM, first compound 1 µM) was 23.5%, the viability, T/C (second compound 10 µM, first compound 3.16 µM) was 13.6% and the viability, T/C (second compound 10 µM, first compound 10 µM) was 0.19%.
